Experimental data from ChEMBL document CHEMBL4406824, “Phenolic N-monosubstituted carbamates: Antitubercular and toxicity evaluation of multi-targeting compounds” (Eur J Med Chem, 2019).
≈ marks a conversion by molar mass, not a printed value.

Experiments:
Mycobacterium kansasii [1] = assay: Antimycobacterial activity against Mycobacterium kansasii 6509/96 after 14 days; format: functional; settings: 6509/96, 336 h
[2] = tested on: Mycobacterium tuberculosis; format: functional; settings: H37Rv 331/88, 504 h
Mycobacterium kansasii [3] = assay: Antimycobacterial activity against Mycobacterium kansasii 235/80 after 14 days; format: functional; settings: 235/80, 336 h
Mycobacterium kansasii [4] = assay: Potency index, ratio of p-aminosalicylic acid MIC to compound MIC for antimycobacterial activity against Mycobacterium kansasii 6509/96; format: functional
Mycobacterium kansasii [5] = assay: Antimycobacterial activity against Mycobacterium kansasii 235/80 after 21 days; format: functional; settings: 235/80, 504 h
Mycobacterium kansasii [6] = assay: Antimycobacterial activity against Mycobacterium kansasii 6509/96 after 7 days; format: functional; settings: 6509/96, 168 h
Mycolicibacterium aurum = assay: Antimycobacterial activity against Mycobacterium aurum DSM 43999 after 72 hr by resazurin dye based microdilution method; format: functional; settings: DSM 43999, 72 h
Mycobacterium avium [7] = assay: Antimycobacterial activity against Mycobacterium avium 330/88 after 21 days; format: functional; settings: 330/88, 504 h
HepG2 [8] = assay: Cytotoxicity against human HepG2 cells assessed as reduction in cell viability after overnight incubation by MTT assay; format: cell-based
HepG2 [9] = assay: Cytostatic activity against human HepG2 cells preincubated for overnight in serum free medium followed by compound wash out and further incubated for 72 hrs in presence of serum by MTT assay; format: ADME, cell-based
[10] = tested on: Mycolicibacterium smegmatis; assay: Antimycobacterial activity against Mycobacterium smegmatis DSM 43465 after 120 hr by resazurin dye based microdilution method; format: functional; settings: DSM 43465, 120 h
[11] = tested on: Mycobacterium tuberculosis; assay: Antimycobacterial activity against XDR Mycobacterium tuberculosis Praha 131 after 21 days; format: functional; settings: Praha 131, 504 h
Mycobacterium kansasii [12] = assay: Antimycobacterial activity against Mycobacterium kansasii 6509/96 after 21 days; format: functional; settings: 6509/96, 504 h
[13] = tested on: Mycobacterium tuberculosis H37Rv; assay: Inhibition of recombinant Mycobacterium tuberculosis H37Rv ICL1 expressed in Escherichia coli BL21 (DE3) cells at 10 uM using (+)-potassium Ds-threo-isocitrate as substrate by glyoxylate phenyl hydrazone formation assay relative to control
[14] = tested on: Mycobacterium tuberculosis; format: functional; settings: H37Rv 331/88, 336 h
in vitro = settings: human, HepG2 cells
Description: Selectivity index, ratio of IC50 for human HepG2 cells to MIC for antimycobacterial activity against Mycobacterium tuberculosis H37Rv

Mycobacterium kansasii [15] = assay: Potency index, ratio of p-aminosalicylic acid MIC to compound MIC for antimycobacterial activity against Mycobacterium kansasii 235/80; format: functional
[16] = tested on: Mycobacterium tuberculosis; assay: Antimycobacterial activity against XDR Mycobacterium tuberculosis Praha 131 after 14 days; format: functional; settings: Praha 131, 336 h
[17] = tested on: Mycobacterium tuberculosis; format: functional, H37Rv 331/88; set-up: reference not given here
[18] = tested on: Mycobacterium tuberculosis; assay: Antimycobacterial activity against Mycobacterium tuberculosis H37Ra ITM-M006710 after 48 hr by resazurin dye based microdilution method; format: functional; settings: H37Ra ITM-M006710, 48 h
Mycobacterium kansasii [19] = assay: Antimycobacterial activity against Mycobacterium kansasii 235/80 after 7 days; format: functional; settings: 235/80, 168 h
Mycobacterium avium [20] = assay: Antimycobacterial activity against Mycobacterium avium 330/88 after 14 days; format: functional; settings: 330/88, 336 h
Isocitrate lyase = biological target: T1, Isocitrate lyase (Mycobacterium tuberculosis, UniProt P9WKK7); assay: Inhibition of recombinant Mycobacterium tuberculosis ICL expressed in Escherichia coli BL21 (DE3) cells using DL-isocitric acid trisodium salt hydrate as substrate after 30 mins
T1 sequence (P9WKK7 whole entry): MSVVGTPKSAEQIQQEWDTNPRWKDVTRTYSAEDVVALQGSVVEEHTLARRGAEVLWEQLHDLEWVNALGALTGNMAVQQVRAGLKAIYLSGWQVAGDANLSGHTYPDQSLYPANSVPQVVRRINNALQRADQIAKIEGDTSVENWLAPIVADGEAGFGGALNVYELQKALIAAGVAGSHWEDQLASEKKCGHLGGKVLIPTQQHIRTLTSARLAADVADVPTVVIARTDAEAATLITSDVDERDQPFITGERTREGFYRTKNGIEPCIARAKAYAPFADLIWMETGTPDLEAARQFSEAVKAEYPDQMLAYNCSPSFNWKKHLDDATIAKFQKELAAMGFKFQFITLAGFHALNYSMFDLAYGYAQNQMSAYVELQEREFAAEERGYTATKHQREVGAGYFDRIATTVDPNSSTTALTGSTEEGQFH

Mycobacterium avium [21] = assay: Potency index, ratio of p-aminosalicylic acid MIC to compound MIC for antimycobacterial activity against Mycobacterium avium 330/88; format: functional

Row | SMILES | MIC (Mycobacterium kansasii [1]) | MIC [2] | MIC (Mycobacterium kansasii [3]) | Ratio (Mycobacterium kansasii [4]) | MIC (Mycobacterium kansasii [5]) | MIC (Mycobacterium kansasii [6]) | MIC (Mycolicibacterium aurum) | MIC (Mycobacterium avium [7]) | IC50 (HepG2 [8]) | IC50 (HepG2 [9]) | MIC [10] | MIC [11] | MIC (Mycobacterium kansasii [12]) | inhibition [13] | MIC [14] | selectivity ratio (in vitro) | Ratio (Mycobacterium kansasii [15]) | MIC [16] | Ratio [17] | MIC [18] | further results
1 | O=C(NCCc1ccccc1)Oc1ccc(Cl)cc1C(=O)Nc1ccc(C(F)(F)F)cc1 | 4 µM (≈ 1.85 µg/mL) | 1 µM (≈ 0.463 µg/mL) | 4 µM (≈ 1.85 µg/mL) | >250 | 8 µM (≈ 3.7 µg/mL) | 2 µM (≈ 0.926 µg/mL) | ≤ 0.84 µM | 8 µM (≈ 3.7 µg/mL) | > 125 µM | 1 µM | ≤ 0.84 µM | 2 µM (≈ 0.926 µg/mL) | 4 µM (≈ 1.85 µg/mL) | 11% | ≤ 0.5 µM | > 125 | >250 | 2 µM (≈ 0.926 µg/mL) | >125 | 0.84 to 1.69 µM (≈ 0.389 to 0.782 µg/mL) | MIC (Mycobacterium kansasii [19]): 4 µM (≈ 1.85 µg/mL); MIC (Mycobacterium avium [20]): 8 µM (≈ 3.7 µg/mL)
2 | O=C(Nc1ccccc1)Oc1ccc(Cl)cc1C(=O)Nc1ccc(C(F)(F)F)cc1 | 4 µM (≈ 1.74 µg/mL) | 1 µM (≈ 0.435 µg/mL) | 4 µM (≈ 1.74 µg/mL) | >250 | 4 µM (≈ 1.74 µg/mL) | 2 µM (≈ 0.87 µg/mL) | ≤ 0.9 µM | 8 µM (≈ 3.48 µg/mL) | 9.8 µM | 2.45 µM | ≤ 0.9 µM | 1 µM (≈ 0.435 µg/mL) | 4 µM (≈ 1.74 µg/mL) | 13% | ≤ 0.5 µM | 9.8 to 19.6 | >250 | 1 µM (≈ 0.435 µg/mL) | >125 | ≤ 0.9 µM | MIC (Mycobacterium kansasii [19]): 4 µM (≈ 1.74 µg/mL); MIC (Mycobacterium avium [20]): 8 µM (≈ 3.48 µg/mL)
3 | COC(=O)/C=C/C(=O)c1ccc(OC)cc1 | – | – | – | – | – | – | – | – | – | – | – | – | – | – | – | – | – | – | – | – | IC50 (Isocitrate lyase): 30.9 µM
4 | O=C(NC1CCCCC1)Oc1ccc(Cl)cc1C(=O)Nc1ccc(C(F)(F)F)cc1 | 4 µM (≈ 1.76 µg/mL) | 1 µM (≈ 0.441 µg/mL) | 4 µM (≈ 1.76 µg/mL) | >250 | 8 µM (≈ 3.53 µg/mL) | 2 µM (≈ 0.882 µg/mL) | ≤ 0.88 µM | 8 µM (≈ 3.53 µg/mL) | > 125 µM | 0.75 µM | ≤ 0.88 µM | 1 µM (≈ 0.441 µg/mL) | 4 µM (≈ 1.76 µg/mL) | 14% | 1 µM (≈ 0.441 µg/mL) | > 125 | >250 | 0.5 µM (≈ 0.22 µg/mL) | >125 | ≤ 0.88 µM | MIC (Mycobacterium kansasii [19]): 4 µM (≈ 1.76 µg/mL); MIC (Mycobacterium avium [20]): 8 µM (≈ 3.53 µg/mL)
5 | O=C(NC12CC3CC(CC(C3)C1)C2)Oc1ccc(Cl)cc1C(=O)Nc1ccc(C(F)(F)F)cc1 | 4 µM (≈ 1.97 µg/mL) | 1 µM (≈ 0.493 µg/mL) | 4 µM (≈ 1.97 µg/mL) | >250 | 4 µM (≈ 1.97 µg/mL) | 4 µM (≈ 1.97 µg/mL) | ≤ 0.79 µM | 4 µM (≈ 1.97 µg/mL) | > 125 µM | 4.85 µM | 4 µM (≈ 1.97 µg/mL) | 1 µM (≈ 0.493 µg/mL) | 4 µM (≈ 1.97 µg/mL) | 15% | ≤ 0.5 µM | > 125 | >250 | 1 µM (≈ 0.493 µg/mL) | >125 | 2 µM (≈ 0.986 µg/mL) | Ratio (Mycobacterium avium [21]): >31; MIC (Mycobacterium kansasii [19]): 4 µM (≈ 1.97 µg/mL); MIC (Mycobacterium avium [20]): 4 µM (≈ 1.97 µg/mL)
